This assay has as its target T1, CETP (Homo sapiens, UniProt P11597).
T1 construct: from tissue; host or cells: human plasma from normal volunteers
T1 sequence (P11597 18-493): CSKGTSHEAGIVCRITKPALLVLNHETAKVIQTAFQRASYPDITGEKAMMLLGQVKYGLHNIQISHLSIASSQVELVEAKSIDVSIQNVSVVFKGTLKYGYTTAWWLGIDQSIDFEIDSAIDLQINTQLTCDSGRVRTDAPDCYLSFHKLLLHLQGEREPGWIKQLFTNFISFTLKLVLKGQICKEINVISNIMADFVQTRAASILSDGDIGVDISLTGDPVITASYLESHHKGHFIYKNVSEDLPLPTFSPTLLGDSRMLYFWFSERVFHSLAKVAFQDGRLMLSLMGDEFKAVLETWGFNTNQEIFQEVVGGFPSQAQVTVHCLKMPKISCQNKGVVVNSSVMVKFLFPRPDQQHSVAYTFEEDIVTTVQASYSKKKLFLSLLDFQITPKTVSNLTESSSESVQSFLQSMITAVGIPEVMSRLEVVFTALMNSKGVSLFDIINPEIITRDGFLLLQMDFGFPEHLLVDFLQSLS
As to the kind of experiment: CETP in vitro assay ([3H]CE-HDL transfer, Amersham kit TRKQ7005; modified protocol in human plasma). It counts as biochemical. Particulars: multiple values = multiple measurements; for % Inhibition @ 1 μM / inhibition at 1 µM: 1 μM compound. The gist of the method:
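Normal-volunteer human plasma was incubated ≥4 hr at 37 °C with approx. 25 μg/ml [3H]CE-HDL and compound in DMSO, with a 4 °C blank for non-specific transfer. HDL was separated by Dextralip/MgCl2 precipitation and centrifugation, then supernatant radioactivity counted. IC50 came from % control versus concentration.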

Where “and” joins values, the source holds several entries; their conditions need not be identical. Equal entries are not always repeated.

In the case of `OC(CN1c2cccc(-c3cccc(OC(F)(F)F)c3)c2OCC1c1ccoc1)C(F)(F)F` (stereo not shown) [Compound 105, 1,1,1-Trifluoro-3-[3-furan-3-yl-8-(3-trifluoromethoxy-phenyl)-2,3-dihydro-benzo[1,4]oxazin-4-yl]-propan-2-ol], the “% Inhibition @ 1 μM” value is listed as 2%.

`CN(C)CCN1c2cccc(-c3cccc(OC(F)(F)F)c3)c2OCC1c1cccc(OC(F)(F)C(F)F)c1` (stereo not shown) [Compound 28, Dimethyl-{2-[3-[3-(1,1,2,2-tetrafluoro-ethoxy)-phenyl]-8-(3-trifluoromethoxy-phenyl)-2,3-dihydro-benzo[1,4]oxazin-4-yl]-ethyl}-amine] came in with an inhibition at 1 µM of 9%.

`O=C(CN1c2cccc(-c3cccc(OC(F)(F)F)c3)c2OC[C@@H]1c1cccc(OC(F)(F)C(F)F)c1)C(F)(F)F` [Compound 37, 2-Propanone, 3-[(3S)-2,3-dihydro-3-[3-(1,1,2,2-tetrafluoroethoxy)phenyl]-8-[3-(trifluoromethoxy)phenyl]-4H-1,4-benzoxazin-4-yl]-1,1,1-trifluoro-]: 1 µM produced 5% inhibition.

Consider `OC(CN1c2cccc(-c3cccc(F)c3)c2OCC1c1cccc(OC(F)(F)C(F)F)c1)C(F)(F)F` (single isomer, unassigned) [Compound 67, 1,1,1-Trifluoro-3-{8-(3-fluoro-phenyl)-3-[3-(1,1,2,2-tetrafluoro-ethoxy)-phenyl]-2,3-dihydro-benzo[1,4]oxazin-4-yl}-propan-2-ol], for which the “% Inhibition @ 1 μM” value is 97% and 83%; the IC50 turned out to be 780 nM.

Molecule `O[C@H](CN1c2cccc(-c3cccc(OC(F)(F)F)c3)c2OC[C@H]1c1cccc(OC(F)(F)C(F)F)c1)C(F)(F)F` [Compound 5, 4H-1,4-Benzoxazine-4-ethanol, 2,3-dihydro-3-[3-(1,1,2,2-tetrafluoroethoxy)phenyl]-8-[3-(trifluoromethoxy)phenyl]-α-(trifluoromethyl)-, (3R,αR)—] registered an inhibition at 1 µM of 23%.

As to `OCCCC1COc2c(-c3cccc(OC(F)(F)F)c3)cccc2N1CC(O)C(F)(F)F` (stereo not shown) [Compound 52, 3-[4-(3,3,3-Trifluoro-2-hydroxy-propyl)-8-(3-trifluoromethoxy-phenyl)-3,4-dihydro-2H-benzo[1,4]oxazin-3-yl]-propan-1-ol], the “% Inhibition @ 1 μM” value is 13%.

As for `O[C@@H](CN1c2cccc(-c3cc(F)c(F)c(F)c3)c2OC[C@@H]1c1cccc(OC(F)(F)F)c1)C(F)(F)F` [Compound 82, 4H-1,4-Benzoxazine-4-ethanol, 2,3-dihydro-3-[3-(trifluoromethoxy)phenyl]-8-[3,4,5-(trifluoro)phenyl]-α-(trifluoromethyl)-, (3S,αS)—], testing at 1 µM gave an inhibition of 91%; the “% Inhibition @ 1 μM” value was 96%; the midpoint of inhibition, the IC50, lay at 94 nM.

As to `OC(CN1c2cccc(-c3cccc(OC(F)(F)F)c3)c2OCC1c1ccccc1)C(F)(F)F` (stereo not shown) [Compound 95, 1,1,1-Trifluoro-3-[3-phenyl-8-(3-trifluoromethoxy-phenyl)-2,3-dihydro-benzo[1,4]oxazin-4-yl]-propan-2-ol], the “% Inhibition @ 1 μM” value was 43%.

The molecule `O[C@@H](CN1c2cccc(-c3cccc(OC(F)(F)F)c3)c2OC[C@H]1c1cccc(OC(F)(F)C(F)F)c1)C(F)(F)F` [Compound 6, 4H-1,4-Benzoxazine-4-ethanol, 2,3-dihydro-3-[3-(1,1,2,2-tetrafluoroethoxy)phenyl]-8-[3-(trifluoromethoxy)phenyl]-α-(trifluoromethyl)-, (3R,αS)—] returned an inhibition at 1 µM of 14%.

With `COC(=O)N(C)CCN1c2cccc(-c3cccc(OC(F)(F)F)c3)c2OCC1c1cccc(OC(F)(F)C(F)F)c1` (stereo not shown) [Compound 42, Methyl-{2-[3-[3-(1,1,2,2-tetrafluoro-ethoxy)-phenyl]-8-(3-trifluoromethoxy-phenyl)-2,3-dihydro-benzo[1,4]oxazin-4-yl]-ethyl}-carbamic acid methyl ester], the inhibition at 1 µM was found to be 8%.

For `CC(C)(C)[Si](C)(C)OCCN1c2cccc(-c3cccc(OC(F)(F)F)c3)c2OCC1c1cccc(OC(F)(F)C(F)F)c1` (stereo not shown) [Compound 22, 4-[2-(tert-Butyl-dimethyl-silanyloxy)-ethyl]-3-[3-(1,1,2,2-tetrafluoro-ethoxy)-phenyl]-8-(3-trifluoromethoxy-phenyl)-3,4-dihydro-2H-benzo[1,4]oxazine], testing at 1 µM gave an inhibition of 13%.

The molecule `CCOC(=O)N1c2cccc(-c3cccc(OC(F)(F)F)c3)c2OCC1c1cccc(OC(F)(F)C(F)F)c1` (stereo not shown) [Compound 21, 3-[3-(1,1,2,2-Tetrafluoro-ethoxy)-phenyl]-8-(3-trifluoromethoxy-phenyl)-2,3-dihydro-benzo[1,4]oxazine-4-carboxylic acid ethyl ester] gave an inhibition at 1 µM of 2%.

For `CC(C)(C)[Si](C)(C)OCCCN1c2cccc(-c3cccc(OC(F)(F)F)c3)c2OCC1c1cccc(OC(F)(F)C(F)F)c1` (stereo not shown) [Compound 25, 4-[3-(tert-Butyl-dimethyl-silanyloxy)-propyl]-3-[3-(1,1,2,2-tetrafluoro-ethoxy)-phenyl]-8-(3-trifluoromethoxy-phenyl)-3,4-dihydro-2H-benzo[1,4]oxazine], the inhibition at 1 µM turned out to be 13%.

For the molecule `OC(CN1c2cccc(-c3cccc(OC(F)(F)F)c3)c2OCC1c1ccc(OC(F)(F)F)cc1)C(F)(F)F` (stereo not shown) [Compound 97, 1,1,1-Trifluoro-3-[3-(4-trifluoromethoxy-phenyl)-8-(3-trifluoromethoxy-phenyl)-2,3-dihydro-benzo[1,4]oxazin-4-yl]-propan-2-ol], the “% Inhibition @ 1 μM” value is 38%.

Consider `Cc1ccsc1C1COc2c(-c3cccc(OC(F)(F)F)c3)cccc2N1CC(O)C(F)(F)F` (stereo not shown) [Compound 85, 1,1,1-Trifluoro-3-[3-(3-methyl-thiophen-2-yl)-8-(3-trifluoromethoxy-phenyl)-2,3-dihydro-benzo[1,4]oxazin-4-yl]-propan-2-ol], for which the “% Inhibition @ 1 μM” value stood at 20%.

The molecule `COCCCN1c2cccc(-c3cccc(OC(F)(F)F)c3)c2OCC1c1cccc(OC(F)(F)C(F)F)c1` (stereo not shown) [Compound 27, 4-(3-Methoxy-propyl)-3-[3-(1,1,2,2-tetrafluoro-ethoxy)-phenyl]-8-(3-trifluoromethoxy-phenyl)-3,4-dihydro-2H-benzo[1,4]oxazine] had an inhibition at 1 µM of 29%.

As to `CCOc1cccc(C2COc3c(-c4cccc(OC(F)(F)F)c4)cccc3N2CC(O)C(F)(F)F)c1` (stereo not shown) [Compound 17, 3-[3-(3-Ethoxy-phenyl)-8-(3-trifluoromethoxy-phenyl)-2,3-dihydro-benzo[1,4]oxazin-4-yl]-1,1,1-trifluoro-propan-2-ol], the “% Inhibition @ 1 μM” value is 55% and 56%; half-maximal inhibition (IC50) required 490 nM.

In the case of `CCc1ccsc1C1COc2c(-c3cccc(OC(F)(F)F)c3)cccc2N1CC(O)C(F)(F)F` (stereo not shown) [Compound 88, 3-[3-(3-Ethyl-thiophen-2-yl)-8-(3-trifluoromethoxy-phenyl)-2,3-dihydro-benzo[1,4]oxazin-4-yl]-1,1,1-trifluoro-propan-2-ol], the “% Inhibition @ 1 μM” value is listed as 12%.

With `COc1ccc(C2COc3c(-c4cccc(OC(F)(F)F)c4)cccc3N2CC(O)C(F)(F)F)s1` (stereo not shown) [Compound 62, 1,1,1-Trifluoro-3-[3-(5-methoxy-thiophen-2-yl)-8-(3-trifluoromethoxy-phenyl)-2,3-dihydro-benzo[1,4]oxazin-4-yl]-propan-2-ol], the inhibition at 1 µM came out at 19%.

For the molecule `CC(=O)NCCN1c2cccc(-c3cccc(OC(F)(F)F)c3)c2OCC1c1cccc(OC(F)(F)C(F)F)c1` (stereo not shown) [Compound 40, N-{2-[3-[3-(1,1,2,2-Tetrafluoro-ethoxy)-phenyl]-8-(3-trifluoromethoxy-phenyl)-2,3-dihydro-benzo[1,4]oxazin-4-yl]-ethyl}-acetamide], at 1 µM the inhibition was 0%.

Consider `OC(CN1c2cccc(-c3cccc(OC(F)(F)F)c3)c2OCC1c1cccc(OC(F)(F)F)c1)C(F)(F)F` (stereo not shown) [Compound 7, 3-[3,8-Bis-(3-trifluoromethoxy-phenyl)-2,3-dihydro-benzo[1,4]oxazin-4-yl]-1,1,1-trifluoro-propan-2-ol], for which the “% Inhibition @ 1 μM” value is 64% and 66%; the IC50 is 104 nM and 110 nM.

With `OC(CN1c2cccc(-c3cccc(OC(F)(F)F)c3)c2OCC1c1ccc(OC(F)(F)F)cc1)C(F)(F)F` (stereo not shown) [Compound 98, 1,1,1-Trifluoro-3-[3-(4-trifluoromethoxy-phenyl)-8-(3-trifluoromethoxy-phenyl)-2,3-dihydro-benzo[1,4]oxazin-4-yl]-propan-2-ol], the “% Inhibition @ 1 μM” value is 10%.

`C=CCC1COc2c(-c3cccc(OC(F)(F)F)c3)cccc2N1CC(O)C(F)(F)F` (stereo not shown) [Compound 50, 3-[3-Allyl-8-(3-trifluoromethoxy-phenyl)-2,3-dihydro-benzo[1,4]oxazin-4-yl]-1,1,1-trifluoro-propan-2-ol]: the “% Inhibition @ 1 μM” value amounted to 10%.

For the molecule `OC(CN1c2cccc(-c3cccc(OC(F)(F)F)c3)c2OCC1c1cccc(Cl)c1)C(F)(F)F` (stereo not shown) [Compound 101, 3-[3-(3-Chloro-phenyl)-8-(3-trifluoromethoxy-phenyl)-2,3-dihydro-benzo[1,4]oxazin-4-yl]-1,1,1-trifluoro-propan-2-ol], the “% Inhibition @ 1 μM” value was 61% and 63%; the IC50 stood at 214 nM.

With `OC(CN1c2cccc(-c3cccc(OC(F)(F)F)c3)c2OCC1c1cccs1)C(F)(F)F` (stereo not shown) [Compound 103, 1,1,1-Trifluoro-3-[3-thiophen-2-yl-8-(3-trifluoromethoxy-phenyl)-2,3-dihydro-benzo[1,4]oxazin-4-yl]-propan-2-ol], the “% Inhibition @ 1 μM” value came to 20%.

Source of the values: US8012963B2, “3,4-dihydro-2H-benzo[1,4]oxazine and thiazine derivatives as CETP inhibitors” (Janssen Pharmaceutica N.V., priority 2006, dated 2011).
